This is an account of results in the NIST ThermoML archive (doi:10.1016/j.fluid.2015.01.026).

± gives the expanded uncertainty stated by the source.

For the series the following is noted: 298.15 K; 101.33 kPa; Liquid; Vibrating tube method.
The term mass density denotes mass per unit of volume. As to `CC(=O)c1ccccc1` [acetophenone], the mass density turned out to be 1023.05 ± 0.25 kg/m3.

Consider `CCCCCCCCCCCCCC` [tetradecane], for which the mass density is 759.275 ± 0.24 kg/m3.

In the case of `CCCCCCCCCC` [decane], the mass density was determined as 726.347 ± 0.24 kg/m3.

Turning to `CCCCCCCCCCCCCCCC` [hexadecane], the mass density is 770.221 ± 0.24 kg/m3.

Consider `CCCCCCCCCCCC` [dodecane], for which the mass density turned out to be 741.523 ± 0.58 kg/m3.
